Results as given in US20250188084A1, “COMPOUNDS AND METHODS FOR MODULATING CDK9 ACTIVITY” (KRONOS BIO, INC., priority 2020, published 2025).

Tests used:
CDK9 [1] = target: T1, CDK9 (Homo sapiens, UniProt P50750); test: CDK9 degradation by HiBit assay, NCIH211 cells; assay type: cell-based; settings: NCIH211 cells with endogenously tagged N-terminal CDK9-HiBit, 24 hours incubation, read-out: HiBit-NCIH211.2 DC50
T1 construct: NCIH211 cells with endogenously tagged N-terminal CDK9-HiBit; endogenous in cells; host or cells: NCIH211 cells (endogenous CDK9 locus tagged with HiBit)
T1 sequence (P50750 whole entry): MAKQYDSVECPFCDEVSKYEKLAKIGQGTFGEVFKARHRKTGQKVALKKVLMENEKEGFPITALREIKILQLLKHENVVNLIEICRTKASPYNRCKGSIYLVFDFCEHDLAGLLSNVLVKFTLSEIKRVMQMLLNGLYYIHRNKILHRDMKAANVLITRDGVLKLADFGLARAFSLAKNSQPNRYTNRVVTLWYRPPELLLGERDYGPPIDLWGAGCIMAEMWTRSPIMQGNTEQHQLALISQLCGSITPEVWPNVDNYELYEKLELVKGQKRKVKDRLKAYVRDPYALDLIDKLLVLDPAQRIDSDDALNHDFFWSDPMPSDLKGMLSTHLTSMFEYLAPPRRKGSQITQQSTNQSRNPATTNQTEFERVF
T1 sequence (O60563 whole entry partner): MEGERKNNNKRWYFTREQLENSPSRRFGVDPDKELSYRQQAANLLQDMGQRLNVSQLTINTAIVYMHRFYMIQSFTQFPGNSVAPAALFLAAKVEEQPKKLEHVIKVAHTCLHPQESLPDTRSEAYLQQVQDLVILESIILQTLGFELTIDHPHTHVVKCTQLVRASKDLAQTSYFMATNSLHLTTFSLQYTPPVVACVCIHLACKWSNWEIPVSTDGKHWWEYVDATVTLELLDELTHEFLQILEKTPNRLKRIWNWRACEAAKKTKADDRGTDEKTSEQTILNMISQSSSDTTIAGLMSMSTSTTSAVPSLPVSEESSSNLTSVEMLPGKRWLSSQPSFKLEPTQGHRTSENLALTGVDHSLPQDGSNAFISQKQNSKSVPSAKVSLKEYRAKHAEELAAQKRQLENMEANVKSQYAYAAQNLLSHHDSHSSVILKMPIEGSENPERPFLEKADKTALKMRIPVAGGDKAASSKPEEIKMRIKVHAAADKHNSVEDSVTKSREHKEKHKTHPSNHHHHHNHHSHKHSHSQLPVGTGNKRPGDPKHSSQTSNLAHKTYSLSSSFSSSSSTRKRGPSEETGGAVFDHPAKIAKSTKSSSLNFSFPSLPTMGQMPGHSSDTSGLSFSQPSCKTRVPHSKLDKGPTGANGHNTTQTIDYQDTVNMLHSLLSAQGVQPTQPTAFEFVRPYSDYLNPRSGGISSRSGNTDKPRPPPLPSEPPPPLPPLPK
Protocol: (§1) Exemplary compounds of the invention were tested for degradation of CDK9. The compounds were tested in 10-dose DC50 duplicate mode with a 3-fold serial dilution starting at 10 μM by HiBit assay (Promega, Inc) as a direct measurement of CDK9 presence, with incubation time of 24 hours using either NCIH211 cells with endogenously tagged N-terminal CDK9-HiBit or NCIH1048 cells with endogenously tagged N-terminal CDK9-HiBit. A control compound (THAL-SNS-032, CAS 2139287-33-3) was tested in 10-dose DC50 mode with 3-fold serial dilution starting at 10 μM. Data was normalized to positive (medium only) and negative (cells with no treatment) controls and curve fits were analyzed with CDK9 as % response vs. log [compound concentration] using a 4-parameter logistic model by GraphPad software. For Table 2: A is <100, B is <1000 C is <10,000, D is >10,000 and ND is Not Determined.

CDK9 [2] = target: T1, CDK9; test: CDK9 degradation by HiBit assay, NCIH1048 cells; assay type: cell-based; settings: NCIH1048 cells with endogenously tagged N-terminal CDK9-HiBit, 24 hours incubation, read-out: HiBit-NCIH1048.3 DC50
Protocol: as §1

[3] = numeric value (control compound)

Row | DC50 (CDK9 [1]; [3]) [µM] | DC50 (CDK9 [2]; [3]) [nM] | DC50 (CDK9 [1]) [µM] | DC50 (CDK9 [2]) [nM] | Compound
1 | 0.053 | 11 |  |  | CC(C)(C)c1cnc(CSc2cnc(NC(=O)C3CCN(CC(=O)NCCOCCOCCOCCNc4cccc5c4C(=O)N(C4CCC(=O)NC4=O)C5=O)CC3)s2)o1 (stereo not drawn) [THAL-SNS-032, reference compound]
2 |  |  | < 1 | < 100 | CCC(CC)c1cc(N[C@H]2CC[C@H](NCC(=O)N3CCN(CCCCNc4cccc5c4C(=O)N(C4CCC(=O)NC4=O)C5=O)CC3)C2)n2nccc2n1 (stereo partly drawn) [Compound 46.0]
3 |  |  | < 10 | < 10000 | CCC(CC)c1cc(N[C@H]2CC[C@H](NCC(=O)NCCCc3cn(CCOCCOCCOCCOc4cc(-c5scnc5C)ccc4CNC(=O)[C@@H]4C[C@@H](O)CN4C(=O)[C@H](C(C)C)N4Cc5ccccc5C4=O)nn3)C2)n2ncc(Cl)c2n1 [Compound 53.0]
4 |  |  | < 1 | < 100 | CCC(CC)c1cc(N[C@H]2CC[C@H](NCC(=O)N3CCN(CCNc4cccc5c4C(=O)N(C4CCC(=O)NC4=O)C5=O)CC3)C2)n2nccc2n1 (stereo partly drawn) [Compound 47.0]
5 |  |  | < 10 | < 10000 | CCC(CC)c1cc(N[C@H]2CC[C@H](NCC(=O)NCCCc3cn(CCOCCOCCOCCOCCOc4cc(-c5scnc5C)ccc4CNC(=O)[C@@H]4C[C@@H](O)CN4C(=O)[C@H](C(C)C)N4Cc5ccccc5C4=O)nn3)C2)n2ncc(Cl)c2n1 [Compound 54.0]
6 |  |  | < 10 | < 10000 | CCC(CC)c1cc(N[C@H]2CC[C@H](NCC(=O)NCCCc3cn(CCOCCOCCOc4cc(-c5scnc5C)ccc4CNC(=O)[C@@H]4C[C@@H](O)CN4C(=O)[C@H](C(C)C)N4Cc5ccccc5C4=O)nn3)C2)n2ncc(Cl)c2n1 [Compound 51.0]
7 |  |  | < 0.1 | < 100 | C/C=C(\CC)c1cc(N[C@H]2CC[C@H](NCC(=O)N3CCN(CCCCNc4cccc5c4C(=O)N(C4CCC(=O)NC4=O)C5=O)CC3)C2)n2nccc2n1 (stereo partly drawn) [Compound 56.0]
8 |  |  | > 10 | < 10000 | CCC(CC)c1cc(N[C@H]2CC[C@H](NCC(=O)NCCCc3cn(CCOCCOc4cc(-c5scnc5C)ccc4CNC(=O)[C@@H]4C[C@@H](O)CN4C(=O)[C@H](C(C)C)N4Cc5ccccc5C4=O)nn3)C2)n2ncc(Cl)c2n1 [Compound 52.0]
9 |  |  | < 1 | < 100 | CCC(CC)c1cc(N[C@H]2CC[C@H](NCC(=O)N3CCN(CCCNc4cccc5c4C(=O)N(C4CCC(=O)NC4=O)C5=O)CC3)C2)n2nccc2n1 (stereo partly drawn) [Compound 48.0]
10 |  |  | < 1 | < 100 | CCC(CC)c1cc(N[C@H]2CC[C@H](NCC(=O)NCCOCCOCCOCCNc3cccc4c3C(=O)N(C3CCC(=O)NC3=O)C4=O)C2)n2ncc(Cl)c2n1 (stereo partly drawn) [Compound 6.0, N-[2-[2-[2-[2-[[2-(2,6-dioxo-3-piperidyl)-1,3-dioxo-isoindolin-4-yl]amino]ethoxy]ethoxy]ethoxy]ethyl]-2-[[(1S,3S)-3-[[3-chloro-5-(1-ethylpropyl)pyrazolo[1,5-a]pyrimidin-7-yl]amino]cyclopentyl]amino]acetamide]
11 |  |  | < 0.1 | < 100 | C/C=C(\CC)c1cc(N[C@H]2CC[C@H](NCC(=O)N3CCN(CCNc4cccc5c4C(=O)N(C4CCC(=O)NC4=O)C5=O)CC3)C2)n2ncc(Cl)c2n1 (stereo partly drawn) [Compound 58.0, 4-[2-[4-[2-[[(1S,3S)-3-[[3-chloro-5-[(E)-1-ethylprop-1-enyl]pyrazolo[1,5-a]pyrimidin-7-yl]amino]cyclopentyl]amino]acetyl]piperazin-1-yl]ethylamino]-2-(2,6-dioxo-3-piperidyl)isoindoline-1,3-dione]
12 |  |  | < 0.1 | < 100 | CCC(CC)c1cc(N[C@H]2CC[C@H](NCC(=O)N3CCN(CCCNc4cccc5c4C(=O)N(C4CCC(=O)NC4=O)C5=O)CC3)C2)n2ncc(Cl)c2n1 (stereo partly drawn) [Compound 50.0]
13 |  |  | < 0.1 | < 100 | CCC(CC)c1cc(N[C@H]2CC[C@H](NCC(=O)N3CCN(CCCCNc4cccc5c4C(=O)N(C4CCC(=O)NC4=O)C5=O)CC3)C2)n2ncc(Cl)c2n1 (stereo partly drawn) [Compound 45.0]
14 |  |  | > 10 |  | CCC(CC)c1cc(N[C@H]2CC[C@H](NCCOCCOCCn3cc(COCCOCC(=O)N[C@H](C(=O)N4C[C@H](O)C[C@H]4C(=O)NCc4ccc(-c5scnc5C)cc4)C(C)(C)C)nn3)C2)n2nccc2n1 [Compound 14.0, (2S,4R)-4-hydroxy-N-[[4-(4-methylthiazol-5-yl)phenyl]methyl]-1-[(2S)-3,3-dimethyl-2-[[2-[2-[[1-[2-[2-[2-[[(1S,3S)-3-[[5-(1-ethylpropyl)pyrazolo[1,5-a]pyrimidin-7-yl]amino]cyclopentyl]amino]ethoxy]ethoxy]ethyl]triazol-4-yl]methoxy]ethoxy]acetyl]amino]butanoyl]pyrrolidine-2-carboxamide]
15 |  |  | > 10 |  | CCC(CC)c1cc(N[C@H]2CC[C@H](NC(=O)COCCOCCNC(=O)COc3cccc4c3C(=O)N(C3CCC(=O)NC3=O)C4=O)C2)n2nccc2n1 (stereo partly drawn) [Compound 1.0, 2-[2-[2-[[2-[2-(2,6-dioxo-3-piperidyl)-1,3-dioxo-isoindolin-4 yl]oxyacetyl]amino]ethoxy]ethoxy]-N-[(1S,3S)-3-[[5-(1-ethylpropyl)pyrazolo[1,5-a]pyrimidin-7-yl]amino]cyclopentyl]acetamide]
16 |  |  | > 10 |  | CCC(CC)c1cc(N[C@H]2CC[C@H](NCc3cn(CCOCCOc4cc(-c5scnc5C)ccc4CNC(=O)[C@@H]4C[C@@H](O)CN4C(=O)[C@H](C(C)C)N4Cc5ccccc5C4=O)nn3)C2)n2nccc2n1 [Compound 37.0]
17 |  |  | > 10 |  | CCC(CC)c1cc(N[C@H]2CC[C@H](NCC(=O)NCCCc3cn(CCOCCOCCOCCOCC(=O)N[C@H](C(=O)N4C[C@H](O)C[C@H]4C(=O)NCc4ccc(-c5scnc5C)cc4)C(C)(C)C)nn3)C2)n2ncc(Cl)c2n1 [Compound 41.0]
18 |  |  | < 0.1 |  | CCC(CC)c1cc(N[C@H]2CC[C@H](NCC(=O)N3CCN(CCNc4cccc5c4C(=O)N(C4CCC(=O)NC4=O)C5=O)CC3)C2)n2ncc(Cl)c2n1 (stereo partly drawn) [Compound 49.0]
19 |  |  | > 10 |  | CCC(CC)c1cc(N[C@H]2CC[C@H](NCC(=O)NCc3cn(CCOCC(=O)N[C@H](C(=O)N4C[C@H](O)C[C@H]4C(=O)NCc4ccc(-c5scnc5C)cc4)C(C)(C)C)nn3)C2)n2nccc2n1 [Compound 25.0]
20 |  |  | < 10 |  | CCC(CC)c1cc(N[C@H]2CC[C@H](NCCOCCOCCn3cc(CNc4cccc5c4C(=O)N(C4CCC(=O)NC4=O)C5=O)nn3)C2)n2ncc(Cl)c2n1 (stereo partly drawn) [Compound 15.0]
21 |  |  | > 10 |  | CCC(CC)c1cc(N[C@H]2CC[C@H](NCCOCCOCCOCCOCCNc3cccc4c3C(=O)N(C3CCC(=O)NC3=O)C4=O)C2)n2nccc2n1 (stereo partly drawn) [Compound 8.0, 2-(2,6-dioxo-3-piperidyl)-4-[2-[2-[2-[2-[2-[[(1S,3S)-3-[[5-(1-ethylpropyl)pyrazolo[1,5-a]pyrimidin-7-yl]amino]cyclopentyl]amino]ethoxy]ethoxy]ethoxy]ethoxy]ethylamino]isoindoline-1,3-dione]
22 |  |  | > 10 |  | CCC(CC)c1cc(N[C@H]2CC[C@H](NCc3cn(CCOCCOCCOc4cc(-c5scnc5C)ccc4CNC(=O)[C@@H]4C[C@@H](O)CN4C(=O)[C@H](C(C)C)N4Cc5ccccc5C4=O)nn3)C2)n2nccc2n1 [Compound 38.0]
23 |  |  | < 10 |  | CCC(CC)c1cc(N[C@H]2CC[C@H](NCCOCCOCCOCCNc3cccc4c3C(=O)N(C3CCC(=O)NC3=O)C4=O)C2)n2ncc(Cl)c2n1 (stereo partly drawn) [Compound 11.0, 2-(2,6-dioxo-3-piperidyl)-4-[2-[2-[2-[2-[[(1S,3S)-3-[[3-chloro-5-(1-ethylpropyl)pyrazolo[1,5-a]pyrimidin-7-yl]amino]cyclopentyl]amino]ethoxy]ethoxy]ethoxy]ethylamino]isoindoline-1,3-dione]
24 |  |  | > 10 |  | CCC(CC)c1cc(N[C@H]2CC[C@H](NCCOCCOCCOCCn3cc(CNc4cccc5c4C(=O)N(C4CCC(=O)NC4=O)C5=O)nn3)C2)n2nccc2n1 (stereo partly drawn) [Compound 12.0, 2-(2,6-dioxo-3-piperidyl)-4-[[1-[2-[2-[2-[2-[[(1S,3S)-3-[[5-(1-ethylpropyl)pyrazolo[1,5-a]pyrimidin-7-yl]amino]cyclopentyl]amino]ethoxy]ethoxy]ethoxy]ethyl]triazol-4-yl]methylamino]isoindoline-1,3-dione]
25 |  |  | < 10 |  | CCC(CC)c1cc(N[C@H]2CC[C@H](NCC(=O)NCCCc3cn(CCOCCNc4cccc5c4C(=O)N(C4CCC(=O)NC4=O)C5=O)nn3)C2)n2ncc(Cl)c2n1 (stereo partly drawn) [Compound 23.0]
26 |  |  | > 10 |  | CCC(CC)c1cc(N[C@H]2CC[C@H](NCCOCCOCCOCCNc3cccc4c3C(=O)N(C3CCC(=O)NC3=O)C4=O)C2)n2nccc2n1 (stereo partly drawn) [Compound 7.0, 2-(2,6-dioxo-3-piperidyl)-4-[2-[2-[2-[2-[[(1S,3S)-3-[[5-(1-ethylpropyl)pyrazolo[1,5-a]pyrimidin-7-yl]amino]cyclopentyl]amino]ethoxy]ethoxy]ethoxy]ethylamino]isoindoline-1,3-dione]
